Where only a bound is given, the exact number is not on record here.

By IC50 is commonly meant the concentration that gives 50% inhibition. A lower IC50 goes with inhibition by little substance.

For the assay, the target named is HCV RdRp (NS5B) (UniProt P26663). Type of assay: biochemical, hepatitis C virus.
Chain of HCV RdRp (NS5B) (P26663 whole entry, looked up): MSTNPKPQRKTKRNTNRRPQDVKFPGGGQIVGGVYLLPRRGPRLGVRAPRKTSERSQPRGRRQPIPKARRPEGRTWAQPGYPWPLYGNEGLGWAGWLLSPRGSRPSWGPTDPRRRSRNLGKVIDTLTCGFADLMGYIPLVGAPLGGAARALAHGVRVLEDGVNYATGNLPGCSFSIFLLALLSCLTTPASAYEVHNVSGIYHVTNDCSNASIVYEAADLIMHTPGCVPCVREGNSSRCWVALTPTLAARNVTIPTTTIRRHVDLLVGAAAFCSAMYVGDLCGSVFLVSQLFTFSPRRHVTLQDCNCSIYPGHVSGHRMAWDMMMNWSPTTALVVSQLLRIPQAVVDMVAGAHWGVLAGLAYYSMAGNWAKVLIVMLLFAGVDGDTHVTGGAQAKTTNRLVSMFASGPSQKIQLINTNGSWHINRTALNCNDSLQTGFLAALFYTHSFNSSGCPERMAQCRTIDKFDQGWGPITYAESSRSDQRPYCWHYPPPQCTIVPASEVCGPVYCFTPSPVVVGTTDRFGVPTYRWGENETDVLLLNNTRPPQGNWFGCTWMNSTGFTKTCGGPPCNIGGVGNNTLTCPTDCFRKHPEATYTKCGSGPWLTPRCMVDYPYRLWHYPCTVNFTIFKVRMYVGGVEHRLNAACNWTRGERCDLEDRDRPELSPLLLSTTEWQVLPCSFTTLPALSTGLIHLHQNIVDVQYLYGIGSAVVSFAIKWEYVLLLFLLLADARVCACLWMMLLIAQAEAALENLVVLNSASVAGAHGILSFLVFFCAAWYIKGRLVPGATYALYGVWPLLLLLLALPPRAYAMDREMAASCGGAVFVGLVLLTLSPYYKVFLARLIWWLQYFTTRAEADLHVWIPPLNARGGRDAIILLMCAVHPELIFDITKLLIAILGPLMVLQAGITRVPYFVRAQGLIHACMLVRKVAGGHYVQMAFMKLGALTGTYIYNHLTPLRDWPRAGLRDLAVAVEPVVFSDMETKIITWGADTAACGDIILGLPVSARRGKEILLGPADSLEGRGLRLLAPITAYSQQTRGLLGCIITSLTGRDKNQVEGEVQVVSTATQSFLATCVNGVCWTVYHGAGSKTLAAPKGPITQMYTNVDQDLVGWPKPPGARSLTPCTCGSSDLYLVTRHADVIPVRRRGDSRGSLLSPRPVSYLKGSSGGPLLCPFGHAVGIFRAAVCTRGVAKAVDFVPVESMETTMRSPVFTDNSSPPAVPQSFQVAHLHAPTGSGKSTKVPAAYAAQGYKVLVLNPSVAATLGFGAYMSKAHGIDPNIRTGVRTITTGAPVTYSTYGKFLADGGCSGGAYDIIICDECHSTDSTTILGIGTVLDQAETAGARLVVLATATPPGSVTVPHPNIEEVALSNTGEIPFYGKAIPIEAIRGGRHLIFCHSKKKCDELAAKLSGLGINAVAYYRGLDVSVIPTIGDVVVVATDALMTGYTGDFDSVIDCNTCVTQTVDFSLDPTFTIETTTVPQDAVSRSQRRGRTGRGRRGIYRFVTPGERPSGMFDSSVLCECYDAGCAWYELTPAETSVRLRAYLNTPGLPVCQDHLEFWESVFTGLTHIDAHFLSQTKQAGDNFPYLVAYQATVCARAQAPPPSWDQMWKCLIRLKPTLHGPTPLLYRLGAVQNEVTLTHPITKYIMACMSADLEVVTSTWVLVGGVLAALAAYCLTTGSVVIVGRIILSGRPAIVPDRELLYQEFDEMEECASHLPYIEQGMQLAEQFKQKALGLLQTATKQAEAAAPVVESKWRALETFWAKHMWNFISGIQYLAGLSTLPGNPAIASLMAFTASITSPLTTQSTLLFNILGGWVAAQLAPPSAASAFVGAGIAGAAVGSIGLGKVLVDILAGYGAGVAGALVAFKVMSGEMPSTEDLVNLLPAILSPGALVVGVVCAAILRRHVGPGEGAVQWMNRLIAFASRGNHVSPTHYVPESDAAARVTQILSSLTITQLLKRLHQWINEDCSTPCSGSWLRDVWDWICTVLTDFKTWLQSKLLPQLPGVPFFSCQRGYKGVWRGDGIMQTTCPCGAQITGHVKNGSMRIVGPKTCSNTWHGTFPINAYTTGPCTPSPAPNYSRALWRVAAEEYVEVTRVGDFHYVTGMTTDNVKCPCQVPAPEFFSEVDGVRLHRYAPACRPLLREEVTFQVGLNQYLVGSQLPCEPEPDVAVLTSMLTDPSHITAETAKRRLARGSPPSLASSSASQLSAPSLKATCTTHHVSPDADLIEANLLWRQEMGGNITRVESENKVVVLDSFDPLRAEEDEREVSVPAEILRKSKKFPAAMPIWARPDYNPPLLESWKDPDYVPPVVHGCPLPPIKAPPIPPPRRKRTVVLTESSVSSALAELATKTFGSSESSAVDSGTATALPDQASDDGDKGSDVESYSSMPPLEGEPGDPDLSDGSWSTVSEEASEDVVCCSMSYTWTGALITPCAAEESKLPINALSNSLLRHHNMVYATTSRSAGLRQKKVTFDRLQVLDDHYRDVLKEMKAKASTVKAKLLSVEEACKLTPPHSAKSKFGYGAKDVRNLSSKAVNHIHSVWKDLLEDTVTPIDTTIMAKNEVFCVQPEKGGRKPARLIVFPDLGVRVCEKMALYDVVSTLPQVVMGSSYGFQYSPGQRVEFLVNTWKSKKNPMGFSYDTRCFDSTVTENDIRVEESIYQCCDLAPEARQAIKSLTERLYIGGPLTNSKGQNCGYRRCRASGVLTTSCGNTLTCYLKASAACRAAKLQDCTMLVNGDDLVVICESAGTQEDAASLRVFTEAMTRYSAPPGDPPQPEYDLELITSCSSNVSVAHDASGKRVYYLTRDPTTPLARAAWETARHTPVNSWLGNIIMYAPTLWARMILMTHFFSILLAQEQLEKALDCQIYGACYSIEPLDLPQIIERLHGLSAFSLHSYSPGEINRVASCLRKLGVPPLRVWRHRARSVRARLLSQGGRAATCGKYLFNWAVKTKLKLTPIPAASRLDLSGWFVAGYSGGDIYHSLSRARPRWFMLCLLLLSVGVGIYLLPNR
`Cc1ccc(NC(=O)[C@H](CCCCN)NS(=O)(=O)c2ccccc2)cc1` [Compound 387, (S)-6-AMINO-2-BENZENESULFONYLAMINO-HEXANOIC ACID P-TOLYLAMIDE] displayed an IC50 greater than 50 µM.

Turning to `O=C(N[C@@H](Cc1ccccc1)C(=O)Nc1ccc(CN(C(=O)c2ccco2)C2CCCCC2)cc1)OCC1c2ccccc2-c2ccccc21` [Compound 29, (S)-[1-(4-{[CYCLOHEXYL-(FURAN-2-CARBONYL)-AMINO]-METHYL}-PHENYL CARBAMOYL)-2-PHENYL-ETHYL]-CARBAMIC ACID 9H-FLUOREN-9-YLMETHYL ESTER], the IC50 was greater than 50 µM.

For `Cc1ccc(NC(=O)C(CCCCN(C)C)NC(=O)OCC2c3ccccc3-c3ccccc32)cc1` [Compound 124, (S)-(5-DIMETHYLAMINO-1-P-TOLYLCARBAMOYL-PENTYL)-CARBAMIC ACID 9H-FLUOREN-9-YLMETHYL ESTER], the IC50 was greater than 50 µM.

On to `Cc1ccc(NC(=O)C(CCCCN)NC(=O)C(N)Cc2c[nH]c3ccccc23)cc1` [Compound 100, (S,S)-6-AMINO-2-[2-AMINO-3-(1H-INDOL-3-YL)-PROPIONYLAMINO]-HEXANOIC ACID P-TOLYLAMIDE], for which the IC50 was greater than 50 µM. `NCCCC[C@@H](NC(=O)NC1c2ccccc2-c2ccccc21)C(=O)Nc1ccc(C2CCCCC2)cc1` [Compound 195, (R)-6-AMINO-2-[3-(9H-FLUOREN-9-YL)-UREIDO]-HEXANOIC ACID (4-CYCLOHEXYL-PHENYL)-AMIDE] showed an IC50 of less than 10 µM.

In turn, `C[C@H](N)C(=O)Nc1ccc(CN(C(=O)c2ccco2)C2CCCCC2)cc1` [Compound 12, (S)-FURAN-2-CARBOXYLIC ACID [4-(2-AMINO-PROPIONYLAMINO)-BENZYL]-CYCLOHEXYL-AMIDE] yielded an IC50 greater than 50 µM. With `COc1ccccc1CNCC(=O)N[C@@H](CCCCN)C(=O)Nc1ccc(C)cc1` [Compound 341, (S)-6-AMINO-2-[2-(2-METHOXY-BENZYLAMINO)-ACETYLAMINO]-HEXANOIC ACID P-TOLYLAMIDE] the figure was greater than 50 µM; with `CNC(Cc1c[nH]c2ccccc12)C(=O)NC(CCCCN)C(=O)Nc1ccc(C)cc1` [Compound 90, (S)-6-AMINO-2-[3-(1H-INDOL-3-YL)-2-(S)-METHYLAMINO-PROPIONYLAMINO]-HEXANOIC ACID P-TOLYLAMIDE], greater than 50 µM. In the case of `Cc1ccc(NC(=O)[C@H](CCCCN)NS(=O)(=O)c2ccc(C)cc2)cc1` [Compound 396, (S)-6-AMINO-2-(TOLUENE-4-SULFONYLAMINO)-HEXANOIC ACID P-TOLYLAMIDE], the concentration for half-maximal inhibition (IC50) is greater than 50 µM.

Compound `Cc1ccc(NC(=O)C(N)CNC(=O)OCC2c3ccccc3-c3ccccc32)cc1` [Compound 84, (R)-(2-AMINO-2-P-TOLYLCARBAMOYL-ETHYL)-CARBAMIC ACID 9H-FLUOREN-9-YLMETHYL ESTER] came in with an IC50 greater than 50 µM. Consider `NCCCC[C@H](NC(=O)OCC1c2ccccc2-c2ccccc21)C(=O)Nc1ccc(-c2ccccc2)cc1` [Compound 143, (S)-[5-AMINO-1-(BIPHENYL-4-YLCARBAMOYL)-PENTYL]-CARBAMIC ACID 9H-FLUOREN-9-YLMETHYL ESTER], for which the IC50 was less than 10 µM. With `COc1ccc(S(=O)(=O)N[C@@H](CCCCN)C(=O)Nc2ccc(C)cc2)cc1OC` [Compound 386, (S)-6-AMINO-2-(3,4-DIMETHOXY-BENZENESULFONYLAMINO)-HEXANOIC ACID P-TOLYLAMIDE], the half-inhibitory concentration (IC50) was greater than 50 µM. As for `Cc1ccc(NC(=O)[C@H](CCCCN)NC(=O)NCc2ccc(Cl)cc2)cc1` [Compound 167, (S)-6-AMINO-2-[3-(4-CHLORO-BENZYL)-UREIDO]-HEXANOIC ACID P-TOLYLAMIDE], the IC50 was greater than 50 µM.

With `Cc1ccc(NC(=O)C(CCCNC(N)=O)NC(=O)OCC2c3ccccc3-c3ccccc32)cc1` [Compound 113, (S)-(1-P-TOLYLCARBAMOYL-4-UREIDO-BUTYL)-CARBAMIC ACID 9H-FLUOREN-9-YLMETHYL ESTER], the IC50 was greater than 50 µM. `Cc1cc2cc(NC(=O)[C@H](CCCNC(=O)CN)NC(=O)Nc3ccc(OCc4ccccc4)cc3)ccc2[nH]1` [Compound 296, (S)-5-(2-AMINO-ACETYLAMINO)-2-[3-(4-BENZYLOXY-PHENYL)-UREIDO]-PENTANOIC ACID (2-METHYL-1H-INDOL-5-YL)-AMIDE] registered an IC50 of 10 to 50 µM. Turning to `CC(C)(C)c1ccc(NC(=O)CN(CCCCN)C(=O)Nc2ccc(OCc3ccccc3)cc2)cc1` [Compound 282, 2-[1-(4-AMINO-BUTYL)-3-(4-BENZYLOXY-PHENYL)-UREIDO]-N-(4-TERT-BUTYL-PHENYL)-ACETAMIDE], the IC50 was greater than 50 µM. With `Cc1ccc(NC(=O)C(CCCCN)NC(=O)C(N)Cc2cccc3ccccc23)cc1` [Compound 77, (S)-6-AMINO-2-(2-(S)-AMINO-3-NAPHTHALEN-1-YL-PROPIONYLAMINO)-HEXANOIC ACID P-TOLYLAMIDE] the figure was greater than 50 µM.

`Cc1ccc(NC(=O)[C@H](CCCCN)NC(=O)CNc2ccc(Cl)cc2)cc1` [Compound 363, (S)-6-AMINO-2-[2-(4-CHLORO-PHENYLAMINO)-ACETYLAMINO]-HEXANOIC ACID P-TOLYLAMIDE] displayed an IC50 greater than 50 µM.

In the case of `O=C(CC1CNCCN1C(=O)Nc1ccc(-c2ccccc2)cc1)Nc1ccc(C2CCCCC2)cc1` (centres unmarked) [Compound 161, 2-[(4-CYCLOHEXYL-PHENYLCARBAMOYL)-METHYL]-PIPERAZINE-1-CARBOXYLIC ACID BIPHENYL-4-YLAMIDE], the concentration for half-maximal inhibition (IC50) lay in the range of 10 to 50 µM. With `Cc1ccc(NC(=O)[C@H](CCCN)NC(=O)Nc2ccc3c(c2)Cc2ccccc2-3)cc1` [Compound 190, (S)-5-AMINO-2-[3-(9H-FLUOREN-2-YL)-UREIDO]-PENTANOIC ACID P-TOLYLAMIDE], the IC50 was less than 10 µM. `Cc1ccc(NC(=O)C(CO)NC(=O)OCC2c3ccccc3-c3ccccc32)cc1` [Compound 375, (R)-(2-HYDROXY-1-P-TOLYLCARBAMOYL-ETHYL)-CARBAMIC ACID 9H-FLUOREN-9-YLMETHYL ESTER] gave an IC50 greater than 50 µM. Turning to `O=C(CC1CNCCN1C(=O)OCC1c2ccccc2-c2ccccc21)Nc1ccc(C2CCCCC2)cc1` (centres unmarked) [Compound 155, 2-[(4-CYCLOHEXYL-PHENYLCARBAMOYL)-METHYL]-PIPERAZINE-1-CARBOXYLIC ACID 9H-FLUOREN-9-YLMETHYL ESTER], the half-inhibitory concentration (IC50) is 10 to 50 µM. The compound `Cc1ccc(NC(=O)C(CCCCN)NC(=O)c2ccc3ccccc3c2)cc1` [Compound 51, (S)-NAPHTHALENE-2-CARBOXYLIC ACID (5-AMINO-1-P-TOLYLCARBAMOYL-PENTYL)-AMIDE] displayed an IC50 greater than 50 µM. `NCCCC[C@H](NC(=O)c1cccc2ccccc12)C(=O)Nc1ccc(CN(C(=O)c2ccco2)C2CCCCC2)cc1` [Compound 24, (S)-FURAN-2-CARBOXYLIC ACID (4-{6-AMINO-2-[(NAPHTHALENE-1-CARBONYL)-AMINO]-HEXANOYLAMINO}-BENZYL)-CYCLOHEXYL-AMIDE] returned an IC50 of 10 to 50 µM. Take `Cc1ccc(NC(=O)[C@H](CCCNC(=O)CN)NC(=O)Nc2ccc(OCc3ccccc3)cc2)cc1` [Compound 322, (S)-5-(2-AMINO-ACETYLAMINO)-2-[3-(4-BENZYLOXY-PHENYL)-UREIDO]-PENTANOIC ACID P-TOLYLAMIDE]: the IC50 lay within 10 to 50 µM.

With `Cc1ccc(NC(=O)C(CCCCN)NC(=O)CNCc2ccc(C(F)(F)F)cc2)cc1` [Compound 352, (S)-6-AMINO-2-[2-(4-TRIFLUOROMETHYL-BENZYLAMINO)-ACETYLAMINO]-HEXANOIC ACID P-TOLYLAMIDE], the IC50 was greater than 50 µM.

The record behind these values is patent publication US20070021434A1, “NON-NUCLEOSIDE ANTI-HEPACIVIRUS AGENTS AND USES THEREOF” (Migenix Inc., priority 2005, published 2007).
